pIC50: −log10 of the molar value. Read-outs that look alike come from different tables or passages of the source.
Columns and labels:
panel of kinases = test: Nanosyn kinase panel profiling (panels of 29, 220, 230, 250 kinases), whole panel; assay type: biochemical; settings: for activity against any of the kinases tested: panel of 29 selected kinases
Experimental: “Inhibiting kinase activity” means to decrease the production of an phosphor-peptide by a particular kinase that can be separated by analytical techniques. […] Profiling data in this application were determined using these techniques at Nanosyn Inc. IC50 data were provided by Reaction Biology Inc using a P33 radiolabeled kinase assay.
These compounds were profiled against a panel of 230 kinases (Nanosyn Inc.).
A total of 15 new inhibitors were designed, prepared, and evaluated against a panel of 29 selected kinases in order to explore the applicability, SAR trends, and the tunability of this scaffold that could be imposed but this unique geometry, Table 21. Inhibitors I-1 to 1-12 all retained the 2-CF3-5-(4-F-phenyl) imidazole-4-carboxamide scaffold previously described (Deitrich, 2010), but explored different Hinge-Gatekeeper Motifs (HGM).
To further test the breadth of applicability and ability to achieve selectivity with inhibitors that share this scaffold geometry, I-11 and I-12 were evaluated against a larger panel of 220 high interest kinases, Table-23.

BRAF(V600E) [1] = target: T1, BRAF(V600E) (Homo sapiens, UniProt P15056, V600E); test: LanthaScreen assay, side by side IC50 comparison; assay type: biochemical
T1 sequence (P15056 whole entry V600E): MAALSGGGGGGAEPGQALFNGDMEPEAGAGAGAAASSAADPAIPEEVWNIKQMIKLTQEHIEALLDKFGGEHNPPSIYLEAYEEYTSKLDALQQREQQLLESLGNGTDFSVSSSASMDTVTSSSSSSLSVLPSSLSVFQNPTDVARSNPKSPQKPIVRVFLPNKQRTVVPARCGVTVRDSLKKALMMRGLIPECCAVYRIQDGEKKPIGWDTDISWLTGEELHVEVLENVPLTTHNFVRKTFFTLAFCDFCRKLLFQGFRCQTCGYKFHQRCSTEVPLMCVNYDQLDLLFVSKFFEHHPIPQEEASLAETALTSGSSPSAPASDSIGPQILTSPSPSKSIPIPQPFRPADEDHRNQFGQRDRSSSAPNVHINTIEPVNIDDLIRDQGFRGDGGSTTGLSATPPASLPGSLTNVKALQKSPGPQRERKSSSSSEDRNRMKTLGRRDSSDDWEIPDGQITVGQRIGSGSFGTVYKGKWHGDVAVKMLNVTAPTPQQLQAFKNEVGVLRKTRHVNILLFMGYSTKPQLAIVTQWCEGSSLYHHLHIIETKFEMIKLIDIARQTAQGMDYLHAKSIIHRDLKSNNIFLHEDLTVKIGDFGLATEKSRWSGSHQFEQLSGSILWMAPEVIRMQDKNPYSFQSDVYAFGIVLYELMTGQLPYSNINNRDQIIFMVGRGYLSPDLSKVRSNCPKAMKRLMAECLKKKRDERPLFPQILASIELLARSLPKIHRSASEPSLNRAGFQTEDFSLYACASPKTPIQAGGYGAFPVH
Experimental: (§1) To test both our binding mode hypothesis and to see if these structural differences could be taken exploited to impart selectivity and potency improvements, I-13, in which the lipophilic 2-trifluoromethy substituent on imidazole ring of inhibitor KIN-035, was replaced by the polar 2-methylsulfonyl substitutent. […] To address this issue, real time kinetic experiments were performed.

BRAF(V600E) [2] = target: T1, BRAF(V600E); test: Real time kinetic experiments; assay type: biochemical
Experimental: as §1

wild type B-Raf = wild type B-Raf (Homo sapiens, UniProt P15056); test: LanthaScreen assay, IC50; assay type: biochemical
Sequence of wild type B-Raf (P15056 whole entry): as the sequence (P15056 whole entry V600E) above, with E600V counted along it
Experimental: as §1

BRAF = target: T2, BRAF (Homo sapiens, UniProt P15056); settings: 1 μM, duplicate, without preincubation; cited from earlier work
T2 construct: literature Ambit Biosciences
T2 sequence (P15056 whole entry): as the sequence (P15056 whole entry V600E) above, with E600V counted along it

PDGFRA = target: T3, PDGFRA (Homo sapiens, UniProt P16234); settings: 1 μM, duplicate, without preincubation; cited from earlier work
T3 construct: literature Ambit Biosciences

BRAF(V600E) [3] = target: T1, BRAF(V600E); parameters: literature Ambit Biosciences; settings: 1 μM, duplicate, without preincubation; cited from earlier work
PDGFRB = target: T4, PDGFRB (Homo sapiens, UniProt P09619); settings: 1 μM, duplicate, without preincubation; cited from earlier work
T4 construct: literature Ambit Biosciences

JAK2 (catalytic) = target: T5, JAK2 (catalytic) (Homo sapiens, UniProt O60674); settings: 1 μM, duplicate, without preincubation; cited from earlier work
T5 construct: catalytic; literature Ambit Biosciences

PRKCE = target: T6, PRKCE (Homo sapiens, UniProt Q02156); settings: 1 μM, duplicate, without preincubation; cited from earlier work
T6 construct: literature Ambit Biosciences
T6 sequence (Q02156 1-737): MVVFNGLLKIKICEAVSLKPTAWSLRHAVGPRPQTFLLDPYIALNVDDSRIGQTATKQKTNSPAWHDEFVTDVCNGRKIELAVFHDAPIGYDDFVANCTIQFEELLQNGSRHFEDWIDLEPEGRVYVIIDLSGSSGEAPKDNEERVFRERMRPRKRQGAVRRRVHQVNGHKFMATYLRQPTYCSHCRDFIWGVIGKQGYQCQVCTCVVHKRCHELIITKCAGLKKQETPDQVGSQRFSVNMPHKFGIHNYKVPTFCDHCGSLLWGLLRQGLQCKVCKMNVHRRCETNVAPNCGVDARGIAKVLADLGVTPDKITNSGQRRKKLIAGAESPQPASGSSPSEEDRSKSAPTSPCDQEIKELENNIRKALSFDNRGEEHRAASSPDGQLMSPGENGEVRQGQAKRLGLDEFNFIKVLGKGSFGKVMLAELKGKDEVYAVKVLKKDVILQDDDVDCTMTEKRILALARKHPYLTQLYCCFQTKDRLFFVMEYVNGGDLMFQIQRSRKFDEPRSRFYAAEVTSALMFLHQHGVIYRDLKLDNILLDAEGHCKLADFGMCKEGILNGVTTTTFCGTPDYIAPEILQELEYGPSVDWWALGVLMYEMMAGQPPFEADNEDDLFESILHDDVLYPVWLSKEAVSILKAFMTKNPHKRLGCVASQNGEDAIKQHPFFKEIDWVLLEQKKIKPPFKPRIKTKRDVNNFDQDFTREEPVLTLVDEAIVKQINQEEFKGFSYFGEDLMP

CDK11 = target: T7, CDK11 (Homo sapiens, UniProt Q9BWU1); settings: 1 μM, duplicate, without preincubation; cited from earlier work
T7 construct: literature Ambit Biosciences
T7 sequence (Q9BWU1 whole entry): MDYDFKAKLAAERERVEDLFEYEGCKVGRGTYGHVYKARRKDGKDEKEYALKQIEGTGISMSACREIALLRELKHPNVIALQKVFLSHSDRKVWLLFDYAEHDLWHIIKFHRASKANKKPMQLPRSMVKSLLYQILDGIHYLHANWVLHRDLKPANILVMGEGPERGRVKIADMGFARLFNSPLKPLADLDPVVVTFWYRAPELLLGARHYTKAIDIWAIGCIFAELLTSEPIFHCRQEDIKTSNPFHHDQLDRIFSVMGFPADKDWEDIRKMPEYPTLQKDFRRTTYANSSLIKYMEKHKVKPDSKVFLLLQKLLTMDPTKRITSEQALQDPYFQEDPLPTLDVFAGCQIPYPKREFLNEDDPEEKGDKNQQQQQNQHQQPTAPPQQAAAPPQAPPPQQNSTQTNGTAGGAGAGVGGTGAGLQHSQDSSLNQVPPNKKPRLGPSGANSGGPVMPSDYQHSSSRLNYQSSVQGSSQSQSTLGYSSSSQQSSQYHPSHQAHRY

p38-alpha = target: T8, p38-alpha (Homo sapiens, UniProt Q16539); settings: 1 μM, duplicate, without preincubation; cited from earlier work
T8 construct: literature Ambit Biosciences
T8 sequence (Q16539 whole entry): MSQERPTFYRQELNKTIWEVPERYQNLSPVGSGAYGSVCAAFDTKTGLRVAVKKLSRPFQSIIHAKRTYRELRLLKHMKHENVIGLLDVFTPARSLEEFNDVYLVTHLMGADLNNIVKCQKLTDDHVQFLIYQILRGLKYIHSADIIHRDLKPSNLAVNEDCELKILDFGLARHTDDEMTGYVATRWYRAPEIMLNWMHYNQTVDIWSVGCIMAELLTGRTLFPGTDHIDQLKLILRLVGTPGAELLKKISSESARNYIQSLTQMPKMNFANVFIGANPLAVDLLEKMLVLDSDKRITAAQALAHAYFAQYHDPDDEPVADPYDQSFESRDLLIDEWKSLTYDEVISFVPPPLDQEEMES

CSF1R = target: T9, CSF1R (Homo sapiens, UniProt P07333); settings: 1 μM, duplicate, without preincubation; cited from earlier work
T9 construct: literature Ambit Biosciences
T9 sequence (P07333 20-972): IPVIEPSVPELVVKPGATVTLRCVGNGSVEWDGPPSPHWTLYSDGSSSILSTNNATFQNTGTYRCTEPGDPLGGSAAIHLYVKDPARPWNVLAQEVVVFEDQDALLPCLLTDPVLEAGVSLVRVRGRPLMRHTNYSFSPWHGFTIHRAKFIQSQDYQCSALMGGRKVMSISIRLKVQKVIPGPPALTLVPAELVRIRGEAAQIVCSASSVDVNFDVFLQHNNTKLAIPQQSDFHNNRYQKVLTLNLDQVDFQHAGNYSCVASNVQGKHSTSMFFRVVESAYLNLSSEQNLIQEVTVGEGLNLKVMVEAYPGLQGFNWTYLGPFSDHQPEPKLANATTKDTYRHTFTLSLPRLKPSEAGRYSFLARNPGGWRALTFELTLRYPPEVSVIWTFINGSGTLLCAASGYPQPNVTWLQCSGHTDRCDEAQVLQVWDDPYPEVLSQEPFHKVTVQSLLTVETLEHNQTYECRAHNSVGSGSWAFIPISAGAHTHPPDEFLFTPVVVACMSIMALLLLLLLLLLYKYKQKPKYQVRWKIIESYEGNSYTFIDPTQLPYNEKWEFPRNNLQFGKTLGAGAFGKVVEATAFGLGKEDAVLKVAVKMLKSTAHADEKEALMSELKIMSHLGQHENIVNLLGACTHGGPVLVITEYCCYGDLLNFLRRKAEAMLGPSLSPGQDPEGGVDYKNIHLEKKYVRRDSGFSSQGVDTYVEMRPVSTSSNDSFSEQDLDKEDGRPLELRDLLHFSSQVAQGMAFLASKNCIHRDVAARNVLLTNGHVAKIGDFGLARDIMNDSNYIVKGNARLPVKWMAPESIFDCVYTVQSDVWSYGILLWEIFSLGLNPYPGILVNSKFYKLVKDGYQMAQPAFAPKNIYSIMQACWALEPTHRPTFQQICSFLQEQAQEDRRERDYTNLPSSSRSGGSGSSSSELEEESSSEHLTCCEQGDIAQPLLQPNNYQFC

p38-beta = target: T10, p38-beta (Homo sapiens, UniProt Q15759); settings: 1 μM, duplicate, without preincubation; cited from earlier work
T10 construct: literature Ambit Biosciences

ULK2 = target: T11, ULK2 (Homo sapiens, UniProt Q8IYT8); settings: 1 μM, duplicate, without preincubation; cited from earlier work
T11 construct: literature Ambit Biosciences

IKK-beta = target: T12, IKK-beta (Homo sapiens, UniProt O14920); settings: 1 μM, duplicate, without preincubation; cited from earlier work
T12 construct: literature Ambit Biosciences
T12 sequence (O14920 whole entry): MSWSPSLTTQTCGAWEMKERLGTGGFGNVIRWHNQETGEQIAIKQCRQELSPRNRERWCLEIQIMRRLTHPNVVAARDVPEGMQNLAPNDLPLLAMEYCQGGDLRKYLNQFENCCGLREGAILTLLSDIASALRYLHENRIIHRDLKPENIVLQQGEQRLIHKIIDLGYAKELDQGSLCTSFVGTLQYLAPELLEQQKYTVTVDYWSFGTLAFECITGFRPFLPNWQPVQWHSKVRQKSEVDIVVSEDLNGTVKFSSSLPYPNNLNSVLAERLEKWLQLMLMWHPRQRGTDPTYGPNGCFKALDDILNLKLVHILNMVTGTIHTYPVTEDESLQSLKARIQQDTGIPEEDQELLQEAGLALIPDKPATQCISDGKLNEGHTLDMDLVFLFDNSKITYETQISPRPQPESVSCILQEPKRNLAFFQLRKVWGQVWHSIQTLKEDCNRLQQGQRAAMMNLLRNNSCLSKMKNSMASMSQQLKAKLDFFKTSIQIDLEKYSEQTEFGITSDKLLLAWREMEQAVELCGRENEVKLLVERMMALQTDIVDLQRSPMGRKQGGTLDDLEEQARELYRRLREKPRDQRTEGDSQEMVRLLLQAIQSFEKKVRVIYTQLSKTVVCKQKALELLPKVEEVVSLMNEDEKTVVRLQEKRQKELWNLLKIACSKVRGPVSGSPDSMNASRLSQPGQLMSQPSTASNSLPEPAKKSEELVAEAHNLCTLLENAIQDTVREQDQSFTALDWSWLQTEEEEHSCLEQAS

DCAMKL1 = target: T13, DCAMKL1 (Homo sapiens, UniProt O15075); settings: 1 μM, duplicate, without preincubation; cited from earlier work
T13 construct: literature Ambit Biosciences
T13 sequence (O15075 1-740): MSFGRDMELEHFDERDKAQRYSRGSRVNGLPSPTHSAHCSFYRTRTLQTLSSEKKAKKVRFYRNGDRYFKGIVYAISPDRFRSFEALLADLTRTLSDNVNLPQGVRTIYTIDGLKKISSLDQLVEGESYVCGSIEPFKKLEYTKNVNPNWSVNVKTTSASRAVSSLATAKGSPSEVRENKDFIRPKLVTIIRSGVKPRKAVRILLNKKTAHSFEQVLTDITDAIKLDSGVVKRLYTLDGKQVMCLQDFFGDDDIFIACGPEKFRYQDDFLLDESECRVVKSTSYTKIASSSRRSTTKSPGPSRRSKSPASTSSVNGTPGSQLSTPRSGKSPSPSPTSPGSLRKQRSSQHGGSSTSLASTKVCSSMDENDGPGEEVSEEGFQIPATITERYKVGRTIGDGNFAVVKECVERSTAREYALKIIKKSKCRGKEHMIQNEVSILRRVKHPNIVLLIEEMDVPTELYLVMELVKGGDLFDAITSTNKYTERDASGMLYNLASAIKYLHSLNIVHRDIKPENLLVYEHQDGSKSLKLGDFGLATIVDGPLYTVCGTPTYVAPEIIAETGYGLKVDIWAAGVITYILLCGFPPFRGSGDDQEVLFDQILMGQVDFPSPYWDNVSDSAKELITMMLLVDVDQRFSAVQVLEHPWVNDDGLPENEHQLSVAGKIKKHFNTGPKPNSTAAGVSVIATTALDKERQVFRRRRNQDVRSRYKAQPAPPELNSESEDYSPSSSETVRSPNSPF

RAF1 = target: T14, RAF1 (Homo sapiens, UniProt P04049); settings: 1 μM, duplicate, without preincubation; cited from earlier work
T14 construct: literature Ambit Biosciences

KIT = KIT (Homo sapiens, UniProt P10721); settings: 1 μM, duplicate, without preincubation; cited from earlier work
Sequence of KIT (P10721 26-976): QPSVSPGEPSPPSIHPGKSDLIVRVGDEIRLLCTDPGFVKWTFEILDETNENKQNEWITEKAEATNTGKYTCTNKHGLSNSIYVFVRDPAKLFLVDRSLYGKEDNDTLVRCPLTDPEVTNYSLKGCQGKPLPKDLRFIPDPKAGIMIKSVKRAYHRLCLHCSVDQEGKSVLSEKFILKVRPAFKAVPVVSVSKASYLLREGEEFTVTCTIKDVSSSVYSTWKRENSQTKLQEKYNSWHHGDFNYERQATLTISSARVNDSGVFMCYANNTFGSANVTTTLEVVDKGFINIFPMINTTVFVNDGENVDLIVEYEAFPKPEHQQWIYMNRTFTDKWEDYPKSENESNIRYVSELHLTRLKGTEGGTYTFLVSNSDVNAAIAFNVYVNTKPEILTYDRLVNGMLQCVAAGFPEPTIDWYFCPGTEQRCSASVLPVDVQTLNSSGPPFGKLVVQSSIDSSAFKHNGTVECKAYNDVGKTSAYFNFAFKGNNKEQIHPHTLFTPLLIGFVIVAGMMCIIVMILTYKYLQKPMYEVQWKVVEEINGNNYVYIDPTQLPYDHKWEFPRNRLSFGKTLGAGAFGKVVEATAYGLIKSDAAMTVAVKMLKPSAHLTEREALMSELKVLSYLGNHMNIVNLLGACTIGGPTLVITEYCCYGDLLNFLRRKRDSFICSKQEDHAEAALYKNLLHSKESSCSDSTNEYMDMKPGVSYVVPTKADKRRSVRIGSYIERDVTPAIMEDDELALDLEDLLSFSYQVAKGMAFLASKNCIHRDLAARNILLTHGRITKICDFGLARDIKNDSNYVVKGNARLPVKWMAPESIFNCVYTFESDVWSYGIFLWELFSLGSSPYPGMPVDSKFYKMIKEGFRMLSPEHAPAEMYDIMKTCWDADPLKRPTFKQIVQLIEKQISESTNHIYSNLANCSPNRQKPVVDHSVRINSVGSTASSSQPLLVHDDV

BTK = target: T15, BTK (Homo sapiens, UniProt Q06187); settings: 1 μM, duplicate, without preincubation; cited from earlier work
T15 construct: literature Ambit Biosciences
T15 sequence (Q06187 whole entry): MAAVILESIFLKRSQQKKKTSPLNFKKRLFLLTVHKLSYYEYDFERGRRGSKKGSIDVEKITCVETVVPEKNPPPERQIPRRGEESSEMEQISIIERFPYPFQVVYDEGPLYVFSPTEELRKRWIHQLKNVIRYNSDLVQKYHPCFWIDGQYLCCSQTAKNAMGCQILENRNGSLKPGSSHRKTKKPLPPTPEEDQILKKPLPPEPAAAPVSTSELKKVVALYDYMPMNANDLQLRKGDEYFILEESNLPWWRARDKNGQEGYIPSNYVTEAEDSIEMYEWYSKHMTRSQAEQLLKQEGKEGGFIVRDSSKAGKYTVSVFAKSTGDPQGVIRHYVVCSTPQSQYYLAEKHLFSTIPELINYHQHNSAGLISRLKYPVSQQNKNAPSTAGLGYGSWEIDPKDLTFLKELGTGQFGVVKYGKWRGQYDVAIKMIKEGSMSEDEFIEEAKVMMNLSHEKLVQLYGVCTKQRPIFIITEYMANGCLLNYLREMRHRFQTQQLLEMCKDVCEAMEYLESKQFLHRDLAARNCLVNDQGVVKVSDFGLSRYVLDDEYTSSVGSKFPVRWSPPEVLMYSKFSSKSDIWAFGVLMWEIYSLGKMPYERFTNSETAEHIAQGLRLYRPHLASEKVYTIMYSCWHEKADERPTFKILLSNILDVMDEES

CDK7 = target: T16, CDK7 (Homo sapiens, UniProt P50613); settings: 1 μM, duplicate, without preincubation; cited from earlier work
T16 construct: literature Ambit Biosciences

PLK4 = target: T17, PLK4 (Homo sapiens, UniProt O00444); settings: 1 μM, duplicate, without preincubation; cited from earlier work
T17 construct: literature Ambit Biosciences
T17 sequence (O00444 1-970): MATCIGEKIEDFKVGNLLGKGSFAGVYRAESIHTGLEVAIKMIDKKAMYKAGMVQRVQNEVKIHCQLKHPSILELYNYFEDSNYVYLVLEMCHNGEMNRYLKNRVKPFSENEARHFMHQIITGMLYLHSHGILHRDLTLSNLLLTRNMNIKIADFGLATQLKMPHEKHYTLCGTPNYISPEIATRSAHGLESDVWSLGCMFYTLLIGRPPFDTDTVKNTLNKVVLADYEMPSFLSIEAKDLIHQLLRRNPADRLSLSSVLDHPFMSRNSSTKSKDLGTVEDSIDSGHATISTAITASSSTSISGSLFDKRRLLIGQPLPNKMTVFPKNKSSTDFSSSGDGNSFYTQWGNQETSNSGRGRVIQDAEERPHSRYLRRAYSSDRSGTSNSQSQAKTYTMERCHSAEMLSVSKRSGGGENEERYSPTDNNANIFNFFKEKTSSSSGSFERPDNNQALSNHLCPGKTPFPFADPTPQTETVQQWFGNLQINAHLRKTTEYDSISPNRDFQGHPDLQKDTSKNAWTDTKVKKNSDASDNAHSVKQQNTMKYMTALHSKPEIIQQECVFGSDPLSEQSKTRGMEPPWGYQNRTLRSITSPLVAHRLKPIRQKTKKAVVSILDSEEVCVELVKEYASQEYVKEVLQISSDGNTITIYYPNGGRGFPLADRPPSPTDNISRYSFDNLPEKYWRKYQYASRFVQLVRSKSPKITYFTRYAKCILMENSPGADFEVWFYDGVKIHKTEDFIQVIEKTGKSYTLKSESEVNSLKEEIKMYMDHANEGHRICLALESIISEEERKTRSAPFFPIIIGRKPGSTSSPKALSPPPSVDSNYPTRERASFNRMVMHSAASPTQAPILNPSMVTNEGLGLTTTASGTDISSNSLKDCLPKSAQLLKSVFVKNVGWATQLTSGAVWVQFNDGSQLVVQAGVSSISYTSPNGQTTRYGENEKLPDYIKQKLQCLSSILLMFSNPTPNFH

O=C(Nc1ccccn1)c1cc(NC(=O)c2nc(C(F)(F)F)[nH]c2-c2ccc(F)cc2)ccc1Cl [Inhibitor I-1, 5-(4-Fluoro-phenyl)-2-trifluoromethyl-3H-imidazole-4-carboxylic acid [4-chloro-3-(pyridin-2-ylcarbamoyl)-phenyl]-amide]
activity against any of the kinases tested (panel of kinases): no significant activity

O=C(Nc1ccncc1)c1cc(NC(=O)c2nc(C(F)(F)F)[nH]c2-c2ccc(F)cc2)ccc1Cl [Inhibitor I-2, 5-(4-Fluoro-phenyl)-2-trifluoromethyl-3H-imidazole-4-carboxylic acid [4-chloro-3-(pyridin-4-ylcarbamoyl)-phenyl]-amide]
activity against any of the kinases tested (panel of kinases): no significant activity

Cc1ccc(NC(=O)c2nc(C(F)(F)F)[nH]c2-c2ccc(F)cc2)cc1NC(=O)c1c[nH]c2ncccc12 [Inhibitor I-11, 1H-7-Azaindole-3-carboxylic acid (5-{[5-(4-fluoro-phenyl)-2-trifluoromethyl-3H-imidazole-4-carbonyl]-amino}-2-methyl-phenyl)-amide]
selectivity in kinase panel (panel of kinases; panel of 220 kinases, 5 μM): extremely selective for p38-α

O=C(Nc1ccc(Oc2ccnc3[nH]c(=O)[nH]c23)cc1)c1nc(C(F)(F)F)[nH]c1-c1ccc(F)cc1 [Inhibitor I-12, 4-(4-{[5-(4-Fluoro-phenyl)-2-trifluoromethyl-3H-imidazole-4-carbonyl]-amino}-phenoxy)-pyridine-2,3-benzimidazolone carboxylic acid methylamide]
number of panel kinases at >25% inhibition (panel of kinases; panel of 220 kinases, 5 μM): 72 kinases | number of panel kinases with greater than 50% inhibition (panel of kinases; panel of 220 kinases, 5 μM): 45 kinases

Cc1ccc(NC(=O)c2nc(S(C)(=O)=O)[nH]c2-c2ccc(F)cc2)cc1Nc1ccc2ncn(C)c(=O)c2c1 [Inhibitor I-13, 3-(3-methyl-4-oxo-3,4-dihydroquinazolin-6-ylamino)-4-methyl-analine, 5-(4-Fluorophenyl)-2-(methylsulfonyl)-1H-imidazole-4-carboxamide]
more potent against the mutant verses wild type B-Raf (BRAF(V600E) [1]; B-Raf(V600E) vs wild type B-Raf): approximately 80 fold | increase in potency vs KIN-0035 (BRAF(V600E) [1]; LanthaScreen assay, IC50 ratio): 10 fold | pIC50 (BRAF(V600E) [1]; LanthaScreen assay, side by side comparison): 8.18 | change of IC50 value with preincubation (BRAF(V600E) [1]; several hour preincubation period): appeared to decrease over a several hour preincubation period | real time kinetic data with B-Raf(V600E) (BRAF(V600E) [2]): consistent with either extremely tight binding or irreversible inhibition | real time kinetic data with B-Raf(V600E) (BRAF(V600E) [2]; listed as SFE-0013): consistent with extremely tight or irreversible inhibition | pIC50 (wild type B-Raf): ~6.30

Cc1ccc(NC(=O)c2[nH]c(C(F)(F)F)nc2-c2ccc(F)c(F)c2)cc1Nc1ccc2ncn(C)c(=O)c2c1 [KIN-057]
inhibition of BRAF (BRAF): XXX (XXX > 75% @ 1 μM) | inhibition of PDGFRA (PDGFRA): X (X > 25% @ 1 μM) | inhibition of BRAF(V600E) (BRAF(V600E) [3]): XXX (XXX > 75% @ 1 μM) | inhibition of PDGFRB (PDGFRB): XXX (XXX > 75% @ 1 μM) | inhibition of JAK2 (catalytic) (JAK2 (catalytic)): X (X > 25% @ 1 μM) | inhibition of PRKCE (PRKCE): X (X > 25% @ 1 μM) | inhibition of CDK11 (CDK11): XX (XX > 50% @ 1 μM) | inhibition of p38-alpha (p38-alpha): XXX (XXX > 75% @ 1 μM) | inhibition of CSF1R (CSF1R): X (X > 25% @ 1 μM) | inhibition of p38-beta (p38-beta): X (X > 25% @ 1 μM) | inhibition of ULK2 (ULK2): X (X > 25% @ 1 μM) | inhibition of IKK-beta (IKK-beta): X (X > 25% @ 1 μM) | inhibition of DCAMKL1 (DCAMKL1): X (X > 25% @ 1 μM) | inhibition of RAF1 (RAF1): XXXX (XXXX > 90% @ 1 μM) | inhibition of KIT (KIT): XXX (XXX > 75% @ 1 μM) | inhibition of BTK (BTK): X (X > 25% @ 1 μM) | inhibition of CDK7 (CDK7): X (X > 25% @ 1 μM) | inhibition of PLK4 (PLK4): X (X > 25% @ 1 μM)

Reference: patent US9833455B2, “Preparation and methods of use for ortho-aryl 5-membered heteroaryl-carboxamide containing multi-targeted kinase inhibitors” (Spacefill Enterprises LLC, priority 2011, dated 2017)
